Laboratory results taken from patent publication US20080234304A1, “N3-Pyridyl-Thiamine And Its Use In Cancer Treatments” (AVEO PHARMACEUTICALS, INC., priority 2004, published 2008).

What was measured:
[1] = molecular target: T1, alpha-ketoglutarate dehydrogenase (kGDH) (Homo sapiens, UniProt Q02218); assay: kGDH activity in extracts from cells incubated with N3PT; assay type: cell-based; settings: extracts from cells incubated with increasing concentrations of N3PT; read-out: IC50 kGDH (selectivity comparison, FIG. 9)
T1 construct: endogenous in cells
T1 sequence (Q02218 41-1023): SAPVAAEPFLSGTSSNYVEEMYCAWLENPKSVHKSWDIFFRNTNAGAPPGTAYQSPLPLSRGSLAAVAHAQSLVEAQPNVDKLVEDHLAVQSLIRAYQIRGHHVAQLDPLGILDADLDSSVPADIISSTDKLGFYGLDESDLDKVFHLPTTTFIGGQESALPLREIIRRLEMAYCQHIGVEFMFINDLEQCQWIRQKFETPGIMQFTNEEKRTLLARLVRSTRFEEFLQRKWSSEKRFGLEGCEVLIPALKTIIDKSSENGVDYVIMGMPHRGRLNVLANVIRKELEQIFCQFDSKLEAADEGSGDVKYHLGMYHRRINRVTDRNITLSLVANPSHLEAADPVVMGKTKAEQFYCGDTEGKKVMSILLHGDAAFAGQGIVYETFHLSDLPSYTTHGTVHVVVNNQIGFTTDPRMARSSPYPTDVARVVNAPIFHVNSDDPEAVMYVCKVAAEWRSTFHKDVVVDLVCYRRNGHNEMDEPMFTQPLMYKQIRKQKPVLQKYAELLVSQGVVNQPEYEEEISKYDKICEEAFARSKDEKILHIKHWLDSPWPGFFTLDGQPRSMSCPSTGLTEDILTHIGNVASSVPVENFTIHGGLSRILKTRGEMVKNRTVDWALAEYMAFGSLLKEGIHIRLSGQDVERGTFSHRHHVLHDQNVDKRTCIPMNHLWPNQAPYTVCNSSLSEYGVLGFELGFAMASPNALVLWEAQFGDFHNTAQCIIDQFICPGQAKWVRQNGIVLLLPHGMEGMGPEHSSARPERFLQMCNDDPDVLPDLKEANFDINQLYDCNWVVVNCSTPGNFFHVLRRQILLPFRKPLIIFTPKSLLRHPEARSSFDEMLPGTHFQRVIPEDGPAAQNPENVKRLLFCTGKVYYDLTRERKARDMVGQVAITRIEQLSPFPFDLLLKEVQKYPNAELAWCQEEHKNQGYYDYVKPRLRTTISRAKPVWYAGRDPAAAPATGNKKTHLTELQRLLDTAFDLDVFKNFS
T1 sequence (P36957 68-453 partner): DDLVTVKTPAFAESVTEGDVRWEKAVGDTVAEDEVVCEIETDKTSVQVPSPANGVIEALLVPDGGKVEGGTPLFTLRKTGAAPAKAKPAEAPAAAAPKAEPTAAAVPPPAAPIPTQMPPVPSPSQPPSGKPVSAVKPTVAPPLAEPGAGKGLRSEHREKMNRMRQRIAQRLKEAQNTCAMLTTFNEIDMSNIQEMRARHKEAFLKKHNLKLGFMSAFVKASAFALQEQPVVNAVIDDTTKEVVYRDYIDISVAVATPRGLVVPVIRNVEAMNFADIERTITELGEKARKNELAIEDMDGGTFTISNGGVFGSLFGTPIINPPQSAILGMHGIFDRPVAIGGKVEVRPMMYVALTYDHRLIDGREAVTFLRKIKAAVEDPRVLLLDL
T1 sequence (P09622 36-509 partner): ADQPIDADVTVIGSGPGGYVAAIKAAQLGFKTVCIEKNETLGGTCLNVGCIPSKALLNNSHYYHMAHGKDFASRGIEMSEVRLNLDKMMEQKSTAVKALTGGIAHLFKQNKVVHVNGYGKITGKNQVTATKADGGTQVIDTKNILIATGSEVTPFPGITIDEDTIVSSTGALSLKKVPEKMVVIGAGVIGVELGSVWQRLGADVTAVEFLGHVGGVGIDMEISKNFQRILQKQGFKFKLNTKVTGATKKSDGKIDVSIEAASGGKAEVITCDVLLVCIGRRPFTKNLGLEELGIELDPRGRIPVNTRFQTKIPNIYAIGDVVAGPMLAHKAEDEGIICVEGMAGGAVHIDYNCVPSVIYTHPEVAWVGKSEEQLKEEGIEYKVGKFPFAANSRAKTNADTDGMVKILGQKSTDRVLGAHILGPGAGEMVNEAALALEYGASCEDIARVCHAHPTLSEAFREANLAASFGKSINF
Procedure: TK, kGDH and PDH enzymes all utilize thiamine pyrophosphate (TPP) as a co-factor for their catalysis. Conventional cell culture media (e.g., DMEM, RPMI) have high levels of thiamine (12 μM and 3 μM, respectively). High thiamine levels will mask the inhibitory effect of N3PT. Thus, to measure the IC50 of N3PT, a thiamine depleted DMEM, containing all the ingredients of normal DMEM except for thiamine (HyClone, custom order), was used. Thiamine-depleted media (TDM) is made up with thiamine-depleted DMEM, 10% FBS, which contains low amounts of thiamine (estimated to be ˜3-5 nM) and 1% Penicillin-streptomycin.
Log-phase growing cells were trypsinized and resuspended in TDM. Twenty-four hours after seeding, 5 μl of 20× N3PT compound stock solution was added to the cells in 95 μl of TDM. After increasing times of N3PT treatment, cells were either subjected to enzymatic reactions directly or were frozen at −20° C. for future assays. […] TK activities could be measured from ≧5000 cells in most cell lines tested. […]
Enzymatic inhibition was expressed as percent of control cells that were not treated with compounds. […]

[2] = brain penetration after a single dose in mice; assay type: in vivo, mouse
Procedure: To assess the ability of N3PT to inhibit transketolase in vivo, a single dose of N3PT was administered to Balb C nude mice (ip, 100 mg/kg), and blood and tissue samples were collected over time and enzymatic activities determined. Blood samples were taken (40 μl whole blood) serially or from sacrificed animals at the end of a study. Tissues, including tumor, brain, heart, kidney, liver, lung, spleen, were taken and flash frozen in liquid nitrogen or on dry ice and stored at −80° C. until assay. Blood was diluted into lysis buffer and dissolved. Tissues were suspended in lysis buffer and homogenized with PowerGen 125 (Fisher Scientific) while being submerged in an ice-water bath.

LAMA84 = assay: inhibition of proliferation of LAMA84 cells; assay type: cell-based; settings: LAMA84 chronic myeloid leukemia cell line
Procedure: The ability of N3PT to inhibit proliferation of these cell lines was then tested. LAMA84 was the most sensitive to N3PT, displaying an IC50 of 0.3 μM. The other cell lines, HCT116 and K562, were less sensitive, displaying an IC50 of approximately 2 μM in both cases. LAMA84 also had the highest TK activity (per cell) among these three cancer lines.

## Cc1ccc(C[n+]2csc(CCO)c2C)c(N)n1 [N3PT, 3-[(2-amino-6-methyl-3-pyridinyl)methyl]-5-(2-hydroxyethyl)-4-methyl thiazolium]
[1]
  IC50: 86 nM
[2]
  brain penetration: little or no significant brain penetration
LAMA84
  IC50: 300 nM
